According to patent US8846928B2 (Portola Pharmaceuticals, Inc., priority 2010, dated 2014):

target: T1, full length active recombinant SYK enzyme (Homo sapiens, UniProt P43405); assay: Inhibition of Syk tyrosine phosphorylation activity (LANCE TR-FRET kinase assay); assay type: biochemical
T1 construct: full length active recombinant SYK enzyme (Millipore, Calif.); purchased Millipore

SMILES	IC50 [µM]
CC[C@@H](Nc1nc(Nc2cccc(OC(F)F)c2)c(C(N)=O)cc1F)C(N)=O [Example 264, (R)-6-(1-amino-1-oxobutan-2-ylamino)-5-fluoro-2-(3-(difluoromethoxy)phenylamino)nicotinamide]	0.1 to 1
CC[C@@H](Nc1nc(Nc2ccc3ccccc3c2)c(C(N)=O)cc1F)C(N)=O [Example 233, (R)-6-(1-amino-1-oxobutan-2-ylamino)-5-fluoro-2-(naphthalen-2-ylamino)nicotinamide]	0.001 to 0.01
CC[C@@H](Nc1nc(Nc2cncc(OC)c2)c(C(N)=O)cc1F)C(N)=O [Example 232, (R)-6-(1-amino-1-oxobutan-2-ylamino)-5-fluoro-2-(5-methoxypyridin-3-ylamino)nicotinamide]	0.1 to 1
CC[C@@H](Nc1nc(Nc2ccc3c(c2)OCO3)c(C(N)=O)cc1F)C(N)=O [Example 237, (R)-6-(1-amino-1-oxobutan-2-ylamino)-5-fluoro-2-(benzo[d][1,3]dioxol-5-ylamino)nicotinamide]	0.1 to 1
Cc1cc(Nc2cc(N[C@H](Cc3cccnc3)C(N)=O)c(F)cc2C(N)=O)sn1 [Example 39, (R)-4-(1-amino-1-oxo-3-(pyridin-3-yl)propan-2-ylamino)-5-fluoro-2-(3-methylisothiazol-5-ylamino)benzamide]	0.1 to 1
CC[C@@H](Nc1nc(Nc2ccc3ncccc3c2)c(C(N)=O)cc1F)C(N)=O [Example 100]	0.01 to 0.1
NC(=O)c1cc(F)c(NC2(C(N)=O)CCCCC2)nc1Nc1cnc2ccccc2c1 [Example 378, 6-(1-carbamoylcyclohexylamino)-5-fluoro-2-(quinolin-3-ylamino)nicotinamide]	> 1
NC(=O)c1ccc(N[C@@H]2CCCC[C@@H]2N)nc1Nc1cccc2ncsc12 [Example 401, 6-((1R,2S)-2-aminocyclohexylamino)-2-(benzo[d]thiazol-7-ylamino)nicotinamide]	0.001 to 0.01
NC(=O)c1ccc(N[C@H](CC2CC2)C(N)=O)nc1Nc1cnc2ccccc2c1 [Example 212, (R)-6-(1-amino-3-cyclopropyl-1-oxopropan-2-ylamino)-2-(quinolin-3-ylamino)nicotinamide]	0.001 to 0.01
CC[C@@H](Nc1ccc(C(N)=O)c(Nc2cccc3c2ccn3C)n1)C(N)=O [Example 209, (R)-6-(1-amino-1-oxobutan-2-ylamino)-2-(1-methyl-1H-indol-4-ylamino)nicotinamide]	0.01 to 0.1
CC(C)C[C@@H](Nc1nc(Nc2ccc3c(ccn3C)c2)c(C(N)=O)cc1F)C(N)=O [Example 249, (R)-6-(1-amino-4-methyl-1-oxopentan-2-ylamino)-5-fluoro-2-(1-methyl-1H-indol-5-ylamino)nicotinamide]	0.01 to 0.1
NC(=O)c1ccc(N[C@H](CC2CC2)C(N)=O)nc1Nc1ccc2ncccc2c1 [Example 213, (R)-6-(1-amino-3-cyclopropyl-1-oxopropan-2-ylamino)-2-(quinolin-6-ylamino)nicotinamide]	0.001 to 0.01
CC[C@@H](Nc1nc(Nc2cnc3cccnc3c2)c(C(N)=O)cc1F)C(N)=O [Example 236, (R)-6-(1-amino-1-oxobutan-2-ylamino)-5-fluoro-2-(1,5-naphthyridin-3-ylamino)nicotinamide]	0.1 to 1
COc1cc(F)cc(Nc2nc(N[C@@H]3CCCC(F)(F)[C@@H]3N)c(F)cc2C(N)=O)c1 [Example 338, 6-((1R,2R)-2-amino-3,3-difluorocyclohexylamino)-5-fluoro-2-(3-fluoro-5-methoxyphenylamino)nicotinamide]	0.1 to 1
Cc1cc(Nc2cc(N[C@H](Cc3ccc(O)cc3)C(N)=O)c(F)cc2C(N)=O)sn1 [Example 28, (R)-4-(1-amino-3-(4-hydroxyphenyl)-1-oxopropan-2-ylamino)-5-fluoro-2-(3-methylisothiazol-5-ylamino)benzamide]	0.1 to 1
CC[C@@H](Nc1nc(Nc2cccc3c2cnn3C)c(C(N)=O)cc1F)C(N)=O [Example 240, (R)-6-(1-amino-1-oxobutan-2-ylamino)-5-fluoro-2-(1-methyl-1H-indazol-4-ylamino)nicotinamide]	0.1 to 1
Cn1ccc2c(Nc3cc(N[C@@H]4CCCC[C@@H]4N)ccc3C(N)=O)cccc21 [Example 2, 4-((1R,2S)-2-aminocyclohexylamino)-2-(1-methyl-1H-indol-4-ylamino)benzamide]	0.1 to 1
CCC[C@@H](Nc1nc(Nc2ccc3ncccc3c2)c(C(N)=O)cc1F)C(N)=O [Example 200]	0.01 to 0.1

Results, then the compound that gave them:

IC50 [µM]	SMILES
0.01 to 0.1	NC(=O)c1ccc(N[C@@H]2CCCC[C@@H]2N)nc1Nc1ccc(-n2cccn2)cc1 (relative stereo) [Example 140, 6-(cis-2-aminocyclohexylamino)-2-(4-(1H-pyrazol-1-yl)phenylamino)nicotinamide]
0.001 to 0.01	NC(=O)c1ccc(N[C@@H]2CCCC[C@@H]2N)nc1Nc1ccc2scnc2c1 [Example 400, 6-((1R,2S)-2-aminocyclohexylamino)-2-(benzo[d]thiazol-5-ylamino)nicotinamide]
0.01 to 0.1	NC(=O)c1cc(F)c(N[C@H]2[C@@H](N)CCCC2(F)F)nc1Nc1cccnc1 [Example 347, 6-((1S,6S)-6-amino-2,2-difluorocyclohexylamino)-5-fluoro-2-(pyridin-3-ylamino)nicotinamide]
0.01 to 0.1	NC(=O)c1cc(F)c(N[C@@H]2CCCC(F)(F)[C@@H]2N)nc1Nc1ccc2ncccc2c1 [Example 291, 6-((1R,2R)-2-amino-3,3-difluorocyclohexylamino)-5-fluoro-2-(quinolin-6-ylamino)nicotinamide]
0.001 to 0.01	NC(=O)c1cc(F)c(N[C@@H]2CCCC[C@@H]2N)nc1Nc1cccc(-c2cncnc2)c1 [Example 57, 6-((1R,2S)-2-aminocyclohexylamino)-5-fluoro-2-(3-(pyrimidin-5-yl)phenylamino)nicotinamide]
0.001 to 0.01	NC(=O)c1cc(F)c(N[C@@H]2CCCC[C@@H]2N)nc1Nc1cccc(-n2nccn2)c1 [Example 41, 2-(3-(2H-1,2,3-triazol-2-yephenylamino)-6-(1R,2S)-2-aminocyclohexylamino)-5-fluoronicotinamide]
0.1 to 1	NC(=O)c1cc(F)c(N[C@@H]2CCCC(F)(F)[C@@H]2N)nc1Nc1cccc2ncsc12 [Example 329, 6-((1R,2R)-2-amino-3,3-difluorocyclohexylamino)-2-(benzo[d]thiazol-7-ylamino)-5-fluoronicotinamide]
0.001 to 0.01	Cn1ncc2c(Nc3nc(N[C@@H]4CCCC[C@@H]4N)ccc3C(N)=O)cccc21 [Example 398, 6-((1R,2S)-2-aminocyclohexylamino)-2-(1-methyl-1H-indazol-4-ylamino)nicotinamide]
0.001 to 0.01	NC(=O)c1cc(F)c(N[C@@H]2CCCC[C@@H]2N)nc1Nc1cncc(-c2ncccn2)c1 [Example 156, 6-((1R,2S)-2-aminocyclohexylamino)-5-fluoro-2-(5-(pyrimidin-2-yl)pyridin-3-ylamino)nicotinamide]
0.001 to 0.01	NC(=O)c1cc(F)c(N[C@@H]2CCCC[C@@H]2N)nc1Nc1cccc(-c2nccs2)c1 [Example 189, 6-((1R,2S)-2-aminocyclohexylamino)-5-fluoro-2-(3-(thiazol-2-yl)phenylamino)nicotinamide]
0.001 to 0.01	NC(=O)c1cc(F)c(N[C@@H]2CCCC[C@@H]2N)nc1Nc1cccnc1 [Example 174, 6-((1R,2S)-2-aminocyclohexylamino)-5-fluoro-2-(pyridin-3-ylamino)nicotinamide]
0.001 to 0.01	NC(=O)c1cc(F)c(N[C@H]2[C@@H](N)CCCC2(F)F)nc1Nc1ccc2ncccc2c1 [Example 343, 6-((1S,6S)-6-amino-2,2-difluorocyclohexylamino)-5-fluoro-2-(quinolin-6-ylamino)nicotinamide]
0.01 to 0.1	NC(=O)c1cc(F)c(N[C@@H]2CCCC[C@@H]2N)nc1Nc1ccc(Cl)cc1 [Example 318, 6-((1R,2S)-2-aminocyclohexylamino)-2-(4-chlorophenylamino)-5-fluoronicotinamide]
0.001 to 0.01	Cc1cc(Nc2nc(N[C@@H]3CCCC[C@@H]3N)c(F)cc2C(N)=O)cc(C)n1 [Example 86, 6-((1R,2S)-2-aminocyclohexylamino)-2-(2,6-dimethylpyridin-4-ylamino)-5-fluoronicotinamide]
0.001 to 0.01	NC(=O)c1ccc(N[C@@H]2CCCC[C@@H]2N)nc1Nc1cncc(-c2nccs2)c1 [Example 163]
0.001 to 0.01	Cn1ccc2cc(Nc3nc(N[C@@H]4CCCC[C@@H]4N)c(F)cc3C(N)=O)ccc21 [Example 63, 6-((1R,2S)-2-aminocyclohexylamino)-5-fluoro-2-(1-methyl-1H-indol-5-ylamino)nicotinamide]
0.01 to 0.1	NC(=O)c1ccc(N[C@@H]2CCCC[C@@H]2N)nc1Nc1cncc(-c2ncccn2)c1 [Example 157, 6-((1R,2S)-2-aminocyclohexylamino)-2-(5-(pyrimidin-2-yl)pyridin-3-ylamino)nicotinamide]
0.001 to 0.01	NC(=O)c1cc(F)c(N[C@H]2[C@@H](N)CCCC2(F)F)nc1Nc1cccc(Cl)c1 [Example 388, 6-((1S,6S)-6-amino-2,2-difluorocyclohexylamino)-2-(3-chlorophenylamino)-5-fluoronicotinamide]
0.1 to 1	NC(=O)c1cc(C(N)=O)c(N[C@@H]2CCCC[C@@H]2N)nc1Nc1cccc(-n2nccn2)c1 [Example 116, 2-(3-(2H-1,2,3-triazol-2-yl)phenylamino)-6-((1R,2S)-2-aminocyclohexylamino)pyridine-3,5-dicarboxamide]
0.001 to 0.01	NC(=O)c1cc(F)c(N[C@@H]2CCCC[C@@H]2N)nc1Nc1cccc(Cl)c1 [Example 317, 6-((1R,2S)-2-aminocyclohexylamino)-2-(3-chlorophenylamino)-5-fluoronicotinamide]
0.001 to 0.01	Cn1ncc2c(Nc3nc(N[C@@H]4CCCC[C@@H]4N)c(C#N)cc3C(N)=O)cccc21 [Example 120, 6-((1R,2S)-2-aminocyclohexylamino)-5-cyano-2-(1-methyl-1H-indazol-4-ylamino)nicotinamide]
